Patent US20110053897A1 (IRM LLC, priority 2009, published 2011)
pIC50: −log10 of the molar value.

Target: T1, Syk kinase (Homo sapiens, UniProt P43405)
T1 construct: purchased
Experiment: Syk kinase inhibition, Caliper LabChip off-chip mobility-shift kinase assay
Assay type: biochemical
Conditions: Caliper LabChip assay; read-out: Syk Enzyme IC50
In short: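 Purified Syk pre-incubated 15 min with compound in 100 mM HEPES pH 7.5, 1 mM DTT, 10 mM MgCl2 or MnCl2, 0.002% Brij-35, then 1.5 μM fluorescein peptide and ATP at apparent KM added; 1–1.5 h at room temperature, 4% DMSO, EDTA stop. Microfluidic mobility-shift product/substrate conversion gave % inhibition; IC50 from 12-point series (10–0.00003 μM) by 4-parameter fit.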

| pIC50 | SMILES |
| --- | --- |
| 7.12 | CC1(Cn2ccc3cc(-c4cnc(N)nc4)nc(NC4CCC4)c3c2=O)COC1 [compound 771] |
| 5.99 | CC(C)(C)Nc1nc(Nc2nccs2)cc2ccn(CCO)c(=O)c12 [compound 692] |
| 6.80 | CCn1ccc2cc(Nc3cc(C)ccn3)nc(N[C@H](CO)C(C)C)c2c1=O [compound 1041] |
| > 9.07 | CC1(Nc2nc(-c3cnc(N)nc3)cc3ccn(CCO)c(=O)c23)CCC1 [compound 907] |
| 7.22 | Cc1cc(Nc2cc3ccn(CCO)c(=O)c3c(NC(C)(C)C)n2)ncn1 [compound 886] |
| 7.28 | Cc1ccnc(Nc2cc3ccn(CCN4CCOCC4)c(=O)c3c(N[C@@H](C)CO)n2)c1 [compound 995] |
| 8.05 | CC(C)(C)Nc1nc(-c2cnc(N)nc2)cc2ccn(C[C@H](O)CO)c(=O)c12 [compound 934] |
| 7.22 | CC(C)(C)Nc1nc(Nc2cc(/C=C/CCO)ncn2)cc2ccn(CCO)c(=O)c12 [compound 627] |
| 7.54 | CCn1ccc2cc(-c3cnc(N)nc3)nc(NC3(C)CCC3)c2c1=O [compound 906] |
| 8.30 | CC(C(N)=O)n1ccc2cc(-c3cnc(N)nc3)nc(NC(C)(C)C)c2c1=O (stereo not drawn) [compound 665] |
| 6.65 | CCn1ccc2cc(Nc3cc(C)ccn3)nc(N[C@@H]3CCC[C@@H]3CO)c2c1=O [compound 941] |
| 6.79 | CC(C)(C)Nc1nc(Nc2cc(N3CCC(O)CC3)ncn2)cc2ccn(CCO)c(=O)c12 [compound 634] |
| 7.32 | CC(C)n1ccc2cc(-c3cnc(N)nc3)nc(N[C@H]3CC[C@@H](CO)C3)c2c1=O [compound 1030] |
| 7.77 | NC(=O)Cn1ccc2cc(Nc3cnccn3)nc(N[C@H]3C[C@@H](CO)C3)c2c1=O [compound 747] |
| 7.92 | CC(C)(C)Nc1nc(Nc2cnccn2)cc2ccn(CCCO)c(=O)c12 [compound 1034] |
| 7.13 | C[C@@H](CO)Nc1nc(Nc2cnccn2)cc2ccn(CCF)c(=O)c12 [compound 1000] |
| 7.96 | CC1(Nc2nc(Nc3cnccn3)cc3ccn(CCO)c(=O)c23)CCC1 [compound 896] |

Same assay, conditions: read-out: Syk Enzyme IC50

| SMILES | pIC50 |
| --- | --- |
| CC(CO)Nc1nc(Nc2ccccn2)cc2cc[nH]c(=O)c12 (stereo not drawn) [compound 274] | 7.26 |
| CC(C)Nc1nc(-c2cnc(N)nc2)cc2cc[nH]c(=O)c12 [compound 35] | 7.07 |
| COc1cncc(-c2cc3c(F)c[nH]c(=O)c3c(Nc3ccc(N4CCOCC4)cc3)n2)n1 [compound 432] | 6.21 |
| O=c1[nH]ccc2cc(Nc3ccccn3)nc(N3CCOCC3)c12 [compound 286] | 6.02 |
| COc1cncc(-c2cc3cc[nH]c(=O)c3c(Nc3ccc(C4CCN(CCC#N)C4)cc3)n2)n1 (stereo not drawn) [compound 65] | 7.52 |
| COCCNC(=O)C(C)N1CCC(c2ccc(Nc3nc(-c4cncc(OC)n4)cc4cc[nH]c(=O)c34)cc2C)CC1 (stereo not drawn) [compound 123] | 6.82 |
| COc1cncc(-c2cc3cc[nH]c(=O)c3c(Nc3ccc(CCN4CC5CNCC5C4)cc3)n2)n1 (stereo not drawn) [compound 433] | 7.29 |
| Cc1ccnc(Nc2cc3cc[nH]c(=O)c3c(NCC3CC3)n2)c1 [compound 285] | 6.70 |
| O=c1c2c(N[C@H]3CC[C@@H](O)CC3)nc(Nc3cc(Cl)ccn3)cc2ccn1CCO [compound 384] | 7.77 |
| COCCN1CCC(c2ccc(Nc3nc(-c4cncnc4)cc4cc[nH]c(=O)c34)cc2F)CC1 [compound 198] | 7.51 |
| COCCCc1cc2cc[nH]c(=O)c2c(Nc2ccc(N3CCO[C@H](C)C3)c(C)c2)n1 [compound 239] | 5.65 |
| CCn1ccc2cc(Nc3cnccn3)nc(N[C@H]3CCC[C@H]3O)c2c1=O [compound 421] | 7.63 |
| COCCN1CCC(c2ccc(Nc3nc(-c4ccc(C)nc4)cc4cc[nH]c(=O)c34)cc2C)CC1 [compound 47] | 7.92 |
| Nc1ncc(-c2cc3cc[nH]c(=O)c3c(NC3CCC3)n2)cn1 [compound 453] | 6.79 |
| C[C@@H](CO)Nc1nc(Nc2cnccn2)cc2ccn(CCO)c(=O)c12 [compound 373] | 7.57 |
| COc1cncc(-c2cc3cc[nH]c(=O)c3c(Nc3ccc(C4CCN(C5CS(=O)(=O)C5)CC4)c(C)c3)n2)n1 [compound 42] | 7.59 |
| Cc1cc(C)nc(Nc2cc3cc[nH]c(=O)c3c(Nc3ccc(C4CCN(C5CC5)CC4)c(C)c3)n2)c1 [compound 256] | 6.85 |

| SMILES | pIC50 |
| --- | --- |
| CCN1CCN(CCc2ccc(Nc3nc(-c4ccc(C)nc4)cc4c(F)c[nH]c(=O)c34)cc2)CC1 [compound 443] | 6.38 |
| CCN1CCC(c2ccc(Nc3nc(-c4cncc(OC)n4)cc4cc[nH]c(=O)c34)cc2C)CC1 [compound 137] | 8.00 |
| C[C@@H]1CN([C@H]2CC[C@H](c3ccc(Nc4nc(-c5cncnc5)cc5cc[nH]c(=O)c45)cc3)CC2)CCO1 [compound 93] | 6.36 |
| COc1cncc(-c2cc3cc[nH]c(=O)c3c(Nc3ccc(C4CCN(CC5CCCO5)CC4)c(C)c3)n2)n1 (stereo not drawn) [compound 77] | 6.94 |
| CCNC(=O)c1ccc(Nc2nc(Nc3cc(C)ccn3)cc3ccn(C)c(=O)c23)cc1 [compound 380] | 6.42 |
| Cc1ccc(-c2cc3cc[nH]c(=O)c3c(Nc3ccc(C4CNC4)cc3)n2)cn1 [compound 131] | 6.95 |
| COc1cncc(-c2cc3cc[nH]c(=O)c3c(Nc3ccc(CCN4CCCN(C)CC4)cc3)n2)n1 [compound 434] | 7.43 |
| COCCOCC(=O)N1CCC(c2ccc(Nc3nc(-c4cncc(OC)n4)cc4cc[nH]c(=O)c34)cc2)CC1 [compound 27] | 7.36 |
| CO/N=C(\C)c1cc2cc[nH]c(=O)c2c(Nc2ccc(N3CCO[C@H](C)C3)c(C)c2)n1 [compound 234] | 5.88 |
| O=c1[nH]ccc2cc(C3=CCOCC3)nc(Nc3ccc(N4CCOCC4)cc3)c12 [compound 86] | 7.02 |
| COc1cncc(-c2cc3cc[nH]c(=O)c3c(Nc3ccc(C4CCN(CC(O)CO)CC4)cc3)n2)n1 (stereo not drawn) [compound 127] | 8.15 |
| CCn1ccc2cc(Nc3cc(Cl)ccn3)nc(N[C@H]3CC[C@@H](O)CC3)c2c1=O [compound 383] | 7.59 |
| Cn1ccc2cc(Nc3cnccn3)nc(Nc3ccc(C(=O)N4CCOCC4)cc3)c2c1=O [compound 476] | 6.46 |
| COc1cncc(-c2cc3cc[nH]c(=O)c3c(Nc3ccc(C4CCN(C(C)C(=O)NCCO)CC4)c(C)c3)n2)n1 (stereo not drawn) [compound 122] | 7.04 |
| Cc1ccnc(Nc2cc3cc[nH]c(=O)c3c(N[C@@H](C)CO)n2)c1 [compound 294] | 7.00 |
| O=c1[nH]ccc2cc(Nc3ccccn3)nc(NC3CCOC3)c12 (stereo not drawn) [compound 287] | 6.83 |

More lines, now with the values ahead:

| pIC50 | SMILES |
| --- | --- |
| 6.99 | Cc1ccnc(Nc2cc3ccn(CCO)c(=O)c3c(NC(C)(C)C)n2)c1 [compound 487] |
| 5.71 | Cc1ccnc(Nc2cc3cc[nH]c(=O)c3c(NCCN(C)C)n2)c1 [compound 588] |
| 6.70 | CCN1CCN(CCc2ccc(Nc3nc(Nc4ccccn4)cc4cc[nH]c(=O)c34)cc2)CC1 [compound 551] |
| 6.44 | Cc1cc(Nc2nc(Nc3ccc(C(N)=O)cn3)cc3cc[nH]c(=O)c23)ccc1N1CCO[C@H](C)C1 [compound 538] |
| 6.95 | Cc1ccnc(Nc2cc3cc[nH]c(=O)c3c(NC3CCN(C)CC3)n2)c1 [compound 550] |
| 6.42 | CC(C)Nc1nc(Nc2ccc(C#N)cn2)cc2cc[nH]c(=O)c12 [compound 570] |
| 7.20 | CCc1ccnc(Nc2cc3cc[nH]c(=O)c3c(NC(C)C)n2)c1 [compound 491] |
